Assay results from patent EP2342182B1 (H. Lundbeck A/S, priority 2008, dated 2010).
Starred links: 1 amine or outer side, 2 acyl side, 3 side chain; linkers in the order of their positions; H or OH if unused. Non-standard residues stand in square brackets, D forms with d. Residues, ends and D or L forms follow the SMILES beside them. X1 = O=C([C@H](Cc1cnc(I)[nH]1)N[*:1])[*:2]

Experiments:
[1] = molecular target: T1, human NK3 receptor (Homo sapiens, UniProt P29371); assay: NK3 receptor binding assay (SPA-based competition binding with 125I-NKB); conditions: read-out: KD of 125I-NKB; three independent saturation assays, duplicate determinations; on Affinity (Ki/nM): competition with app 0.02 nM 125I-NKB
T1 construct: expressed in transfected cells; membranes prepared from them
T1 sequence (P29371 1-465): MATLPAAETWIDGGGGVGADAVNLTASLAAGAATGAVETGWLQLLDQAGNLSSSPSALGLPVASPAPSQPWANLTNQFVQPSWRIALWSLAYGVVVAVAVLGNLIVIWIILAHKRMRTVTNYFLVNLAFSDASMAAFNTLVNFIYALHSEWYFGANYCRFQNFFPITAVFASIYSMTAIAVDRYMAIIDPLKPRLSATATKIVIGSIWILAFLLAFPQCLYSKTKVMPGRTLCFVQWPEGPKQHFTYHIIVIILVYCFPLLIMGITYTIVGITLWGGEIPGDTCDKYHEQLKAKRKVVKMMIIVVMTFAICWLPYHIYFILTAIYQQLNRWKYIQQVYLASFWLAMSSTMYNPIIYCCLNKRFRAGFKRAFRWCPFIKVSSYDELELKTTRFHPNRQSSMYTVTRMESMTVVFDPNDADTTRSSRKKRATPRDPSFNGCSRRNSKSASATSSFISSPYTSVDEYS
Experimental: Example 12 NK3 receptor binding assay Membranepreparation: BHK cells stably expressing the human NK3 receptor were seeded in harvesting plates in Dulbeccos MEM containing GlutaMax (862 mg/l), 1mM sodium pyruvate, 10% fetal calf serum, 1% Pen/Strep, 1 mg/ml G418 and were grown at 34 °C in a humidified atmosphere containing 10% CO2. To increase receptor expression, 10 µM trichotatin A was added to the media 24 hours before harvest of the cells at a confluency of app 90%. Prior to the harvesting, the cells were washed twice with PBS without Mg^2+ og Ca^2+ and subsequently scrapped of in 10 ml PBS pr harvesting plate. The cells suspension were centrifuged at 1500xG in three minutes before resuspension in 15 mM Tris-HCl pH 7,5 buffer containing 2 mM MgCl2; 0,3 mM EDTA and 1 mM EGTA (buffer A). The cell suspention was homogenised and subsequently centrifuged at 40000xG in 30 minutes. The membrane-pellet was resuspended in buffer A containing 250 mM sucrose, alliquoted and stored at ― 80 °C. Affinity assay description: The assay was performed as a SPA-based competition-binding assay in a 50 mM Tris pH 7.4 assay buffer containing 120 mM NaCl, 3 mM MnCl2, 40 µg/ml bacitracin, 2 µg/ml Chymostatin, 1 µg/ml Phosphoramidon and 4 µg/ml Leupeptin. […] The plate was centrifugated 10 minutes at 500xG and counted in a topcounter 5 minuttes pr well. […]

[2] = molecular target: T1, human NK3 receptor; assay: as above; conditions: read-out: Affinity (Ki/nM)
Experimental: Example 12 NK3 receptor binding assay
Membranepreparation: BHK cells stably expressing the human NK3 receptor were seeded in harvesting plates in Dulbeccos MEM containing GlutaMax (862 mg/l), 1mM sodium pyruvate, 10% fetal calf serum, 1% Pen/Strep, 1 mg/ml G418 and were grown at 34 °C in a humidified atmosphere containing 10% CO2. To increase receptor expression, 10 µM trichotatin A was added to the media 24 hours before harvest of the cells at a confluency of app 90%. Prior to the harvesting, the cells were washed twice with PBS without Mg^2+ og Ca^2+ and subsequently scrapped of in 10 ml PBS pr harvesting plate. The cells suspension were centrifuged at 1500xG in three minutes before resuspension in 15 mM Tris-HCl pH 7,5 buffer containing 2 mM MgCl2; 0,3 mM EDTA and 1 mM EGTA (buffer A). The cell suspention was homogenised and subsequently centrifuged at 40000xG in 30 minutes. The membrane-pellet was resuspended in buffer A containing 250 mM sucrose, alliquoted and stored at ― 80 °C.
Affinity assay description: The assay was performed as a SPA-based competition-binding assay in a 50 mM Tris pH 7.4 assay buffer containing 120 mM NaCl, 3 mM MnCl2, 40 µg/ml bacitracin, 2 µg/ml Chymostatin, 1 µg/ml Phosphoramidon and 4 µg/ml Leupeptin. […] The assay plate was subsequently under agitation incubated for 90 min at RT. The plate was centrifugated 10 minutes at 500xG and counted in a topcounter 5 minuttes pr well.
The total binding, which comprised less than 5 % of added radioligand, was defined using assay buffer whereas the non-specific binding was defined in the presence of 1 µM osanetant. The non-specific binding constituted app 5 % of the total binding.

[3] = molecular target: T1, human NK3 receptor; assay: NK3 receptor efficacy and potency assay (FLIPR Calcium 4); format: cell-based; conditions: read-out: Potency (cIC50/nM)
Experimental: Example 13 NK3 receptor efficacy and potency assay
BHK cells stably expressing the human NK3 receptor were seeded in 100 µl media in black walled clear-base 96-wells plates (Costar) aiming at a confluency of 95-100% at the day of assay. The assay was performed according to the FLIPR Calcium 4 Assay kit (Molecular Devices). At the day of the assay, the media was removed and the cells were washed once with the HBSS buffer (Hanks BSS buffer, pH 7,4 containing 20 mM Hepes) before 100 µl of a solution of the calcium assay reagent dissolved in the HBSS buffer containing 2,5 mM probinicid was added to the cells. The plates were incubated for 60 min at 34°C, 10% CO2 before use in the FLIPR for examination of fluorescence.
For efficacy and potency evaluation of compounds, these were diluted in HBSS buffer prior to test. For test of agonist activity, 25 µl of the diluted compound solution was added and the plate was analyzed for 5 minutes in the FLIPR. For test of antagonist activity, the plate was incubated for another 45 minutes before addition of 25 µl of the EC85 concentration ofNKB (app. 4 nM) as described above. The plates were subsequently analyzed for 5 minutes before the assay was terminated. The maximal increase in fluorescence over background following each ligand addition was determined.

[4] = Free fraction in plasma (equilibrium dialysis); format: in vitro ADME; conditions: human EDTA plasma, pH 7.4 buffer, 37 °C
Experimental: Example 14 Free fraction in plasma
Free fraction in human plasma has been determined by equilibrium dialysis between human EDTA plasma (Bioreclamation) and 0.1 M NaH2PO4 buffer adjusted to pH 7.4. The experiment was performed in a 96 well dialysis plate (HTD96b, htdialysis). Plasma was frozen at -80 °C immediately after purchasing. Membranes (HTD 96a/b Dialysis Membrane Strips, MWCO 12-14 K, htdialysis) were soaked for one hour in pure PBS and kept in PBS/EtOH 80:20 (v/v) in a closed bottle at 5 °C until use.
Plasma was thawed in cold water and centrifuged 5 min at 3000 rpm before use to move potential clots. The plasma supernatant was transferred to a new tube. Test compounds were diluted to 0.2 mM in DMSO. Plasma was spiked 1:100 with test compound (final concentration 2 µM).
The dialysis plate was assembled with membranes according to the instructions whereupon 150 µL phosphate buffer was loaded to the lower side of the wells immediately after assembling and spiked plasma was loaded to the upper side of the wells. The plate was sealed with sealing tape and incubated at 37 °C with gently shaking in 5 hours.
After 5 hours incubation the plate was removed from the incubator. The sealing tape was carefully removed and 70 µL from the buffer wells ("lower" side) were transferred to 96 well plates for analysis.
Samples were analysed by LC-MS-MS on a Sciex API 4000 (Applied Biosystems). […]

Kd [1] [nM]	Ki [2] [nM]	IC50 [3] [nM]	fraction unbound at 5 h, 2 µM [4]	Structure (SMILES)
0.7				CSCC[C@H](NC(=O)[C@H](CC(C)C)NC(=O)CNC(=O)[C@@H](NC(=O)[C@H](Cc1ccccc1)NC(=O)[C@H](Cc1ccccc1)NC(=O)[C@H](CC(=O)O)NC(=O)[C@H](Cc1cnc(I)[nH]1)NC(=O)[C@H](CCSC)NC(=O)[C@@H](N)CC(=O)O)C(C)C)C(N)=O [^125I-NKB] (H-DM[X1]DFFVGLM-NH2)
	31	36	0.062	CCNn1c(C)c(C(=O)N[C@@H](CC)c2ccccc2)c2cccc(Cl)c2c1=O [Example 2h, 8-Chloro-2-ethylamino-3-methyl-1-oxo-1,2-dihydro-isoquinoline-4-carboxylic acid ((S)-1-phenyl-propyl)-amide]
	27		0.134	CCNn1c(C)c(C(=O)N[C@H](c2ccccc2)C2CC2)c2cccc(F)c2c1=O [Example 2i, 2-Ethylamino-8-fluoro-3-methyl-1-oxo-1,2-dihydro-isoquinoline-4-carboxylic acid ((S)-cyclopropyl-phenyl-methyl)-amide]
			0.124	CCCNn1c(C)c(C(=O)N[C@H](c2ccccc2)C2CC2)c2cccc(F)c2c1=O [Example 2k, 8-Fluoro-3-methyl-1-oxo-2-propylamino-1,2-dihydro-isoquinoline-4-corboxylic acid ((S)-cyclopropyl-phenyl-methyl)-amide]
			0.046	CCCNn1c(C)c(C(=O)N[C@H](c2ccc(F)cc2)C2CCC2)c2cccc(F)c2c1=O [Example 8c]
	28		0.132	CCNn1c(C)c(C(=O)N[C@H](c2ccc(F)cc2)C2CC2)c2cccc(F)c2c1=O [Example 2w, 2-Ethylamino-8-fluoro-3-methyl-1-oxo-1,2-dihydro-isoquinoline-4-carboxylic acid [(S)-cyclopropyl-(4-fluoro-phenyl)-methyl]-amide]
			0.162	CCNn1c(C)c(C(=O)N[C@@H](CC)c2ccccc2)c2ccccc2c1=O [Example 2a, 2-Ethylamino-3-methyl-1-oxo-1,2-dihydro-isoquinoline-4-carboxylic acid ((S)-1-phenylpropyl)-amide]
	43		0.146	CCNn1c(C)c(C(=O)N[C@@H](CC)c2ccccc2)c2cccc(F)c2c1=O [Example 2t, 2-Ethylamino-8-fluoro-3-methyl-1-oxo-1,2-dihydro-isoquinoline-4-carboxylic acid ((S)-1-phenyl-propyl)-amide]
			0.089	Cc1c(C(=O)N[C@H](c2cccc(F)c2)C2CCC2)c2cccc(F)c2c(=O)n1NCCCF [Example 10a, 8-Fluoro-2-(3-fluoro-propylamino)-3-methyl-1-oxo-1,2-dihydro-isoqunoline-4-carboxylic acid [(S)-cyclobutyl-(3-fluoro-phenyl)-methyl]-amide]
			0.006	CC[C@H](NC(=O)c1c(O)c(-c2ccccc2)nc2ccccc12)c1ccccc1 [Talnetant, talnetant, reference compound]
	4.7		0.06	CCNn1c(C)c(C(=O)N[C@H](c2cccc(F)c2)C2CCC2)c2cccc(F)c2c1=O [Example 2s, 2-Ethylamino-8-fluoro-3-methyl-1-oxo-1,2-dihydro-isoquinoline-4-carboxylic acid [(S)-cyclobutyl-(3-fluoro-phenyl)-methyl]-amide]
